Test results: patent US20160282364A1, “ASSAY FOR INSULIN-DEGRADING ENZYME (IDE) INHIBITORS” (PRESIDENT AND FELLOWS OF HARVARD COLLEGE, priority 2013, published 2016)
“Also recorded” adds a separate entry of the source.

Legend:
IDE (R&D) = IDE (R&D) (Homo sapiens, UniProt P14735); test: Yonetani-Theorell double inhibitor kinetic assay; assay type: biochemical; set-up: recombinant human IDE42-1019 (R&D Systems); purchased R&D Systems; settings: 6b together with substrate mimetic Ii1
Text: Protease assays with fluorogenic peptide substrates. […] All assay data points were obtained in duplicate.

IDE = IDE (Homo sapiens, UniProt P14735); test: Protease assay with fluorogenic peptide substrate Mca-[…](Dnp)-OH; assay type: biochemical; set-up: recombinant human IDE42-1019 (R&D Systems); purchased R&D Systems
Description: All data points and error bars represent mean±SEM. Significance tests were performed using two-tail Student's t-test, and significance levels shown in the figures are p<0.05 (*) or p<0.01 (**) versus the vehicle-only control group. The in vitro selection of the DNA-templated macrocycle libraryl^16,17 used 20 μg His6-tagged mouse IDE immobilized on cobalt magnetic beads (Dynabeads, Invitrogen). IDE proteolytic activity was assayed with fluorogenic peptide Mca-[…](Dnp)-OH (R&D). IDE inhibition was confirmed using an anti-insulin antibody time-resolved FRET assay (Cysbio), and using an LCMS assay for CGRP cleavage fragments CGRP1-17 and CGRP18-37 in plasma^18. […] Protease assays with fluorogenic peptide substrates. […] (R&D). All assay data points were obtained in duplicate.

lean mice = test: Basal blood glucose and hormone levels without nutrient challenge; assay type: in vivo, mouse; settings: 80 mg/kg, no glucose challenge, vs controls
Description: Glucose tolerance tests GTT and blood glucose measurements. Prior to a glucose challenge, the animals were fasted for 14 h (8 pm to 10 am, during the dark cycle) while individually housed in a clean cage with inedible wood-chip as a floor substrate, cotton bedding and a red plastic hut. Inhibitor, vehicle or control compounds were administered by a single intraperitoneal (i.p.) injection 30 min prior to the glucose challenge. Dextrose was formulated in sterile saline (3 g in 10 mL total), and the dose was adjusted by fasted body weight. For oGTT, 3.0 g/kg dextrose was administered by gavage at a dose of 10 mL/kg, and for ipGTT, 1.5 g/kg dextrose injected at a dose of 5 mL/kg. Blood glucose was measured using AccuCheck® meters (Aviva) from blood droplets obtained from a small nick at the tip of the tail, at timepoints −45, 0, 15, 30, 45, 60, 90 and 120 min with reference to the time of glucose injection. The area of the blood glucose response profile curve corresponding to each animal was calculated by the trapezoid method^17, using as reference each individual baseline blood glucose measurement prior to glucose administration (t=0). […] Values are reported as mean±S.E.M. Statistics were performed using a two-tail Student's t-test, and significance levels shown in the figures are *p<0.05 versus vehicle control group or **p<0.01 versus vehicle control group. […]

C57BL/6J lean mice = test: CGRP-induced blood glucose excursions; assay type: in vivo, mouse; settings: 80 mg/kg 30 min before CGRP
Description: Supraphysiological doses of CGRP induce blood glucose fluctuations via amylin receptors. […] Blood glucose was monitored at various points throughout the experiment, beginning at 45 minutes before and ending at 110 minutes after CGRP administration. The data was plotted (left panel) and the area under the curve for the 6bK-administered mice and the control mice was integrated.

mice = test: Blood pressure and heart rate in mouse CGRP model; assay type: in vivo
Description: CGRP is a potent microvascular vasodilator widely expressed in the central and peripheral nervous systems of vertebrates. Administration of CGRP resulting in supraphysiological plasma levels of CGRP results in temporary vasodilation, hypotension, and an increased heart rate.
Nine mice received 250 ng CGRP intravenously (t=0). […] The other five received a control injection of vehicle only.
In addition,the lower panel of FIG. 19 demonstates that the increase in heart rate observed initially after CGRP administration is similar in both groups, but that the heart rate remains […] and the heart change rate is decreased in 6bK-administered mice as compared to controls.

[1] = Plasma stability (1 h incubation); assay type: in vitro ADME; settings: after 1 h
[2] = system: lean and DIO C57BL/6J mice; test: i.p. injected glucose tolerance test (IPGTT); assay type: in vivo, mouse
Description: Wild-type lean C57BL/6J and diet-induced obese (DIO) C57BL/6J age-matched male mice were purchased from Jackson Laboratories, and used at ages 14-16, and 24-26 weeks respectively (>20 weeks of high-fat diet for the DIO mice). GCGR^/ mice were bred from heterozygous mice and used between 11 and 17 weeks. […] Blood glucose was measured from tail nicks using AccuCheck (Aviva) meters.
In vivo studies, general information. Wild-type C57BL/6J and diet-induced obese (DIO) C57BL/6J age-matched male adult mice were purchased from Jackson Laboratories. The age range was 13 to 15 weeks for lean mice, and 24 to 26 weeks for DIO mice. All animals were individually housed on a 14-h light, 10-h dark schedule at the Biology Research Infrastructure (BRI), Harvard University. Cage enrichment included cotton bedding and a red plastic hut. Water and food were available ad libitum, consisting respectively of normal chow (Prolab® RHM 3000) or high-fat diet (60 kcal % fat, D12492, Research Diets Inc.). All animal care and experimental procedures were in accordance with the standing committee on the Use of Animals in Research and Teaching at Harvard University, the guidelines and rules established by the Faculty of Arts and Sciences' Institutional Animal Care and Use Committee (IACUC), and the National Institutes of Health Guidelines for the Humane Treatment of Laboratory Animals. Glucagon-receptor knock-out (GCGR^−/−) mice were housed with a 14-h light and 10-h dark schedule and treated in accordance with the guidelines and rules approved by the IACUC at Albert Einstein College of Medicine, NY. Power analysis to determine animal cohort numbers was based on preliminary results and literature precedent, usually requiring between 5 and 8 animals per group. Animals were only excluded from the cohorts in cases of chronic weakness, which occurs among GCGR −/− mice, or when we identified occasional DIO mice with an outlier diabetic phenotype (>200 mg/dL fasting blood glucose). Age- and weight-matched mice were randomized to each treatment group. Double-blinding was not feasible.
Glucose tolerance tests GTT and blood glucose measurements. Prior to a glucose challenge, the animals were fasted for 14 h (8 pm to 10 am, during the dark cycle) while individually housed in a clean cage with inedible wood-chip as a floor substrate, cotton bedding and a red plastic hut. Inhibitor, vehicle or control compounds were administered by a single intraperitoneal (i.p.) injection 30 min prior to the glucose challenge. Dextrose was formulated in sterile saline (3 g in 10 mL total), and the dose was adjusted by fasted body weight. For oGTT, 3.0 g/kg dextrose was administered by gavage at a dose of 10 mL/kg, and for ipGTT, 1.5 g/kg dextrose injected at a dose of 5 mL/kg. Blood glucose was measured using AccuCheck® meters (Aviva) from blood droplets obtained from a small nick at the tip of the tail, at timepoints −45, 0, 15, 30, 45, 60, 90 and 120 min with reference to the time of glucose injection. The area of the blood glucose response profile curve corresponding to each animal was calculated by the trapezoid method^17, using as reference each individual baseline blood glucose measurement prior to glucose administration (t=0). […] Values are reported as mean±S.E.M. Statistics were performed using a two-tail Student's t-test, and significance levels shown in the figures are *p<0.05 versus vehicle control group or **p<0.01 versus vehicle control group.

IDE, sequence (P14735 42-1019): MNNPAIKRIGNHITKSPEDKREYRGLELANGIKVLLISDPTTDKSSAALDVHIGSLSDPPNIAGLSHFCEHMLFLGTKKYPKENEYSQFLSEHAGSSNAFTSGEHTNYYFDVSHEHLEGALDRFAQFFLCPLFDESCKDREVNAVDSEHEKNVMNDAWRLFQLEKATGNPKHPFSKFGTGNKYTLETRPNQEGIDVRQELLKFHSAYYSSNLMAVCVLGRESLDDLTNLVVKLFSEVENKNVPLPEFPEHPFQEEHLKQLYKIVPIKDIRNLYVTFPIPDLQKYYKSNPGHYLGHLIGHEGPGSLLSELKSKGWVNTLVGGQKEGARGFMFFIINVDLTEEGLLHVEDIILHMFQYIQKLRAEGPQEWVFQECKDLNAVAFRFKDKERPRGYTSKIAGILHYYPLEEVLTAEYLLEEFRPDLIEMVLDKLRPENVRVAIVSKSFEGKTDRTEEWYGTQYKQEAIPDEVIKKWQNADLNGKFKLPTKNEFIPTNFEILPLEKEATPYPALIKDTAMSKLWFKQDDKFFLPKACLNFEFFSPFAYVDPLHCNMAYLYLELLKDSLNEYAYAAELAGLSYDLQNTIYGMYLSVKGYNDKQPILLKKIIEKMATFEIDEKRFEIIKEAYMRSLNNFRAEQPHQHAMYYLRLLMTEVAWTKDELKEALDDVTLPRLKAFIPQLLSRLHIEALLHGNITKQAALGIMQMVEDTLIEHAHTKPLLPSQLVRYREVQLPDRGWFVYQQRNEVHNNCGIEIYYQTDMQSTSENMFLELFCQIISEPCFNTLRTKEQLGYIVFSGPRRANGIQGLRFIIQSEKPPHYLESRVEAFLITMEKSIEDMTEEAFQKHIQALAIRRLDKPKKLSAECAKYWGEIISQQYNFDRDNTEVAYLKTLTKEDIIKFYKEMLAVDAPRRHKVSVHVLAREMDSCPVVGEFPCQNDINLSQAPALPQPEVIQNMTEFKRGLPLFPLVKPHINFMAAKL
IDE (R&D), sequence (P14735 42-1019): as above

## NC(=O)CCC1NC(=O)C=CC(=O)NC(C(N)=O)CCCCNC(=O)C(Cc2ccc(C(=O)c3ccccc3)cc2)NC(=O)C(CC2CCCCC2)NC1=O (stereo not shown) [Compound 6b]
IDE (R&D)
  mode of double inhibition with Ii1: synergistic
IDE
  IC50: 60 nM

## NCCCC[C@@H]1NC(=O)/C=C/C(=O)N[C@H](C(N)=O)CCCCNC(=O)[C@@H](Cc2ccc(C(=O)c3ccccc3)cc2)NC(=O)[C@H](CC2CCCCC2)NC1=O [Compound 6bK]
Lean mice
  basal blood glucose or hormone levels: did not significantly alter
C57BL/6J lean mice
  CGRP-induced blood glucose excursions: augments
mice; 1 mg 6bK i.p. 30 min before 250 ng CGRP i.v.
  return of blood pressure to baseline / duration of CGRP-induced hypotension: slower kinetics; also recorded: increases the duration
mice; mice, 1 mg 6bK i.p., vs vehicle
  baseline blood pressure: reduced; also recorded: lowered
mice; mice, 1 mg 6bK, vs control
  baseline heart rate: reduced
[1]
  remaining after incubation with plasma: 74%
[2]; DIO mice, 40 mg/kg
  IPGTT response at low dose: too low to achieve a consistent effect
[2]; DIO mice, 60 mg/kg, lower over initial 30 min, hyperglycemic rebound from 1 h
  glucose response profile in IPGTT: biphasic response
[2]; DIO mice, 90 mg/kg
  IPGTT response at high dose: respond similarly to 60 mg/kg
[2]; i.p., 80 mg/kg lean (25 g), 60 mg/kg DIO (35-45 g)
  effective dose: ~2 mg/mouse
[2]; lean and DIO mice, glucose 1.5 g/kg i.p., vs vehicle
  glucose tolerance after i.p. glucose injection: impaired glucose tolerance
